# Experimental data published in article PMC6968641, “N-monoarylacetothioureas as potent urease inhibitors: synthesis, SAR, and biological evaluation” (Journal of Enzyme Inhibition and Medicinal Chemistry, 2019).
# Where two headings read alike, the source gives them in different places.
# Key:
# [1] = biological target: T1, H. pylori urease (Helicobacter pylori, UniProt P69996); experiment: Urease inhibition, extracted H. pylori urease (indophenol method); assay type: biochemical; conditions: for IC50: IC50 Extracted urease, extracted H. pylori urease
# T1 construct: endogenous in cells; host or cells: H. pylori ATCC 43504; sonicated, supernatant desalted on Sephadex G-25 (crude extract)
# Method: For urease inhibition assays, 50 mL broth cultures (2.0 × 10^8 CFU/mL) were centrifuged (5000×g, 4 °C) to collect the bacteria, and after washing twice with phosphate-buffered saline (pH 7.4), the H. pylori precipitation was stored at –80 °C for 8 h, and then was returned to room temperature, and after addition of 3 mL of distilled water and protease inhibitors, sonication was performed for 60 s. Following centrifugation (15,000×g, 4 °C), the supernatant was desalted through Sephadex G-25 column (PD-10 columns, Amersham Pharmacia Biotech, Uppsala, Sweden). The resultant crude urease solution was added to an equal volume of glycerol and stored at 4 °C until use in the experiment.
# Urease activity was determined in the 96-well assay plate by measuring ammonia production using the indophenol method as described by Weatherburn[20]. Briefly, to each well, 50 µL of urea (10 mM) in phosphate buffer solution was added in a mixture of 25 µL (10 U) of H. pylori urease and 25 µL of the test compound, which was incubated at 37 °C for 0.5 h. Fifty µL of phenol reagent (containing 127 mM phenol and 0.168 mM sodium nitroprusside) and 50 µL of alkali reagent (containing 125 mM NaOH and 0.168 mM NaOCl) were added in turn. The resulted mixture was incubated at 37 °C for another 0.5 h for colouration developing. The increasing absorbance was measured at 630 nm after 50 min using a microplate reader (Molecular Devices, San Jose, CA). Percentage inhibitions were calculated from the following formula (Equation (1)). Experiments were performed in triplicate and AHA was used as reference drug, and the IC50 value was determined as the concentration of compound that give 50% inhibition of maximal activity. As for the urease assay of intact cells, 25 µL (10 U) of H. pylori urease was replaced by 25 µL of cell suspension (4.0 × 10^7 CFU/mL).
# [2] = biological target: T2, Jack bean urease (Canavalia ensiformis, UniProt P07374); experiment: Ligand affinity by surface plasmon resonance (SPR); assay type: binding; conditions: for kon: pH 7.4; for koff: immobilised urease, PBS pH 7.4
# T2 construct: purchased
# Method: The binding kinetics of selected compounds were assayed via surface plasmon resonance (SPR) using an OPEN SPR instrument (Nicoya Lifesciences, Kitchener, Canada). First, urease dissolved (50 µg/mL) in PBS buffer (1 mM KH2PO4, 155 mM NaCl, 3 mM Na2HPO4-12H2O, pH 7.4), was immobilised to a CM5 chip using a standard amine coupling procedure. Then, SPR measurements were carried out in PBS, and stock solutions were diluted in the same buffer. Data were collected with OpenSPR control software. Experiments were performed by monitoring the refractive index changes as a function of time under constant flow rate of 20 µL/min. The relative amount of inhibitor bound to the urease was determined by measuring the net increase in refractive index over time compared to control running buffer. There is an inline subtraction of reference surface during the run. This change is usually reported in response units (RU). Sensograms were processed and analysed using TraceDrawer software. The binding curves were fit to determine the equilibrium dissociation constant (KD).
# In the present paper, the pure Jack bean urease from commercial was used for this assay because of non-availability of pure H. pylori urease. […] For efficient and tight ligand binding, the rate constant koff is of particular interest, because koff has a potential to differentiate indistinguishable compounds with similar affinities.
# [3] = tested on: H. pylori; experiment: Minimum inhibitory concentration, broth microdilution (CLSI); assay type: cell-based, Helicobacter pylori (ATCC 43504); conditions: Helicobacter pylori
# Method: H. pylori (ATCC 43504; […] The minimum inhibitory concentration (MIC) values were determined using the broth microdilution protocol according to the methods of the Clinical and Laboratory Standards Institute (CLSI)[21].
# [4] = Cytotoxicity MTT assay, P69; assay type: cell-based; conditions: human, P69 cells (normal prostate cell line), 25 μg/mL
# Method: (§1) The stock solutions of the selected compounds (250 µg/mL, in PBS) were prepared in medium. L-02 cells and P69 cells were grown in medium (90% RPMI-1640 medium, 10% foetal bovine serum, 1% penicillin/streptomycin) and maintained at 37 °C in a humidified atmosphere containing 5% CO2, respectively. Cells were seeded in 96-well cell culture plates. On the day when seeding, the cells were exposed to 250 µg/mL of compounds and further cultured for 72 h at 37 °C. Cell proliferation was then determined using the thiazolyl blue tetrazolium bromide (MTT) assay.
# [5] = biological target: T2, Jack bean urease; experiment: Enzyme kinetic study (indophenol method); assay type: biochemical; conditions: for Type of inhibition: Jack bean urease; for Ki': dissociation constant of urease-urea-inhibitor complex
# Method: Based on the indophenol method, the velocity of ammonia production (V) was measured in the presence of concentration gradients of urea ([S]) for every specific concentration of selected compounds ([I]). Nonlinear fitting curves to data of V and [S] were used to determine the type of enzyme inhibition based on the general kinetics equation (Equation (1)). Subsequently, the resulted fitting constants ( Km/Vmax(1+[I]/Ki) or 1/Vmax(1+[I]/Ki′) ) and [I] were linearly fitted to give kinetic parameters Ki and Ki', respectively. The experimental assay was performed against a pure urease (Jack bean urease) for the consideration of precision. (1) V=Vmax[S]/Km(1+[I]/Ki)+(1+[I]/K^′i)[S]
# Mazzei et al. confirmed that urease shared the mechanism of catalysis and inhibition regardless of the biological sources[27]^,[28]. For excluding the possible interference, a pure urease (Jack bean urease) was therefore used for kinetic assays. As an example, Figure 2 describes the preincubation-time dependence of urease inhibition by b19. The suppressed urease activity maintained at relatively constant values with the increasing preincubation time under different concentrations of b19, resulting in nearly equal IC50 values.
# Similarly, kinetic parameters ( Ki and Ki' ) and inhibition types of other compounds were also determined and are shown in Table 3.
# [6] = biological target: T3, urease in intact H. pylori cell (Helicobacter pylori, UniProt P69996); experiment: Urease inhibition in intact H. pylori cell (indophenol method); assay type: cell-based
# T3 construct: H. pylori urease was replaced by 25 µL of cell suspension (4.0 × 10^7 CFU/mL); endogenous in cells; host or cells: intact H. pylori ATCC 43504 cells
# [7] = Cytotoxicity MTT assay, L-02; assay type: cell-based; conditions: human, L-02 cells (normal hepatic cell line), 25 μg/mL
# Method: as §1
# T2 sequence (P07374 whole entry, looked up): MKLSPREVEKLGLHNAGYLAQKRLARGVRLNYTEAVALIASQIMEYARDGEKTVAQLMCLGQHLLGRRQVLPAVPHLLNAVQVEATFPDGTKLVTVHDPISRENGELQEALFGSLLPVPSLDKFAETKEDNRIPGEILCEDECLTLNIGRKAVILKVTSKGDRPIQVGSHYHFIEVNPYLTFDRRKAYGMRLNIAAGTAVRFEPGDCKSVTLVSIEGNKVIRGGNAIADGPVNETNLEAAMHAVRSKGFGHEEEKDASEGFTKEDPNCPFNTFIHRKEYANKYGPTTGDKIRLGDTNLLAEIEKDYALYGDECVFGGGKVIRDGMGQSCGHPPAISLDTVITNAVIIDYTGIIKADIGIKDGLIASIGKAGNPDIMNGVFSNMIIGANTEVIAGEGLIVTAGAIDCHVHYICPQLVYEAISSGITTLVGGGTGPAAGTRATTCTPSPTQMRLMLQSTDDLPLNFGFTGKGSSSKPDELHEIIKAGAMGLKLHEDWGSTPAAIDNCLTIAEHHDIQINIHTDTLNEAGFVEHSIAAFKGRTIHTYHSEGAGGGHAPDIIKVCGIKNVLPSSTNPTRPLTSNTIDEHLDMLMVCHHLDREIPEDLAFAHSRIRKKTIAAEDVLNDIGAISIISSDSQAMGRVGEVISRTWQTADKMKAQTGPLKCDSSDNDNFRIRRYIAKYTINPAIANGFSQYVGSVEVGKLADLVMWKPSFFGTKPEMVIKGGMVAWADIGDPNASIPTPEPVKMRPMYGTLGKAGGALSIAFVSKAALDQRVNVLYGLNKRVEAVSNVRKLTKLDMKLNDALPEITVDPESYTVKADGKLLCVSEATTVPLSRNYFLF
# T3 sequence (P69996 whole entry): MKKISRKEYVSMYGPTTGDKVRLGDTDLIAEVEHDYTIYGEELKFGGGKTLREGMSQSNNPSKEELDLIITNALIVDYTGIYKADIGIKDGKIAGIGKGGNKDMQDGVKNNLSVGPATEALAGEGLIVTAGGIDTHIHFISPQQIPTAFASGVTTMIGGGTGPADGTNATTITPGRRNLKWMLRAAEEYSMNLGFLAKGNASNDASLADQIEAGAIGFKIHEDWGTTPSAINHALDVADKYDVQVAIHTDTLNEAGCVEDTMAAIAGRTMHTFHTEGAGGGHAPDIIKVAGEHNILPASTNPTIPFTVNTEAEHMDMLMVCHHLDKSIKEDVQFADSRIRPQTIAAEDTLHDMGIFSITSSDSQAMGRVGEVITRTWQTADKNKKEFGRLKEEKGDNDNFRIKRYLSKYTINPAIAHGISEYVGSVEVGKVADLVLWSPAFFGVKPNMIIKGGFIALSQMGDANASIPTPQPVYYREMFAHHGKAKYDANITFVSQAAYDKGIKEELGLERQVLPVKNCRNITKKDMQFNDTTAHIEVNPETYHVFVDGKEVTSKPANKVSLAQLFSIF
# T3 sequence (P14916 whole entry, further chain): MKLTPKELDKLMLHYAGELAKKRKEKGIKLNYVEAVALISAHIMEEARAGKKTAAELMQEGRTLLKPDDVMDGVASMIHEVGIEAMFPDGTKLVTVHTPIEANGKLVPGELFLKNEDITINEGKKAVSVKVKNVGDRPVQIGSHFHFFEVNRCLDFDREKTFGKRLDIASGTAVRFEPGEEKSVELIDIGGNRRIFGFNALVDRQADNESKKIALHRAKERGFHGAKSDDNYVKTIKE
# T1 sequence (P14916 whole entry): as the sequence (P14916 whole entry, further chain) above
# T1 sequence (P69996 whole entry): as the sequence (P69996 whole entry) above
compound,measurement,setting,value
NC(=S)NC(=O)Cc1ccccc1Br [b15],IC50,[1],51.1 ± 4.4 µM
same,melting point,,179 to 179.5 °C
Cc1ccc(CC(=O)NC(N)=S)cc1 [b16],Kd,[2],0.162 ± 0.0038 µM
same,kon,[2],501000 M⁻¹ s⁻¹
same,koff,"[2]; pH 7.4, SPR",0.081 s⁻¹
same,IC50,[1],5.2 ± 0.32 µM
same,MIC,"[3]; pH=4.0, read-out: MIC pH=4.0",2 µM
same,MIC,"[3]; pH=7.0, read-out: MIC pH=7.0",64 µM
same,"viability at 72 h, 25 µg/mL",[4],89.9%
same,Ki,[5],1.28 µM
same,Type of inhibition,[5],Reversible
same,Ki',[5],2.84 µM
same,melting point,,171.2 to 172.5 °C
same,IC50,[6],35.7 ± 1.7 µM
same,"viability at 72 h, 25 µg/mL",[7],114%
COc1ccccc1CC(=O)NC(N)=S [b17],IC50,[1],55.7 ± 3.1 µM
same,melting point,,135.4 to 136.9 °C
Cc1ccccc1CC(=O)NC(N)=S [b18],IC50,[1],46.2 ± 1.8 µM
same,melting point,,135.6 to 137.1 °C
NC(=S)NC(=O)Cc1ccc(Cl)cc1 [b19],Kd,[2],0.0045 ± 0.00016 µM
same,koff,[2]; SPR,1.73 × 10^–3 ± 2.57 × 10^–5 s^–1
same,kon,[2],3.82e+06 M⁻¹ s⁻¹
same,koff,"[2]; pH 7.4, SPR",0.0016 s⁻¹
same,IC50,[1],0.16 ± 0.05 µM
same,"fold more potent than AHA, extracted urease",[1]; ratio of IC50 values vs AHA,170 fold
same,MIC,"[3]; pH=4.0, read-out: MIC pH=4.0",0.5 µM
same,MIC,"[3]; pH=7.0, read-out: MIC pH=7.0",32 µM
same,"viability at 72 h, 25 µg/mL",[4],> 93%
same,Ki,[5],0.04 µM
same,Type of inhibition,[5],Reversible
same,preincubation-time dependence of urease inhibition,[5]; different preincubation times and concentrations,time-independent
same,Ki',[5],0.16 µM
same,inhibition mechanism,[5]; from Ki and Ki',mixed competitive
same,melting point,,184.1 to 186.6 °C
same,IC50,[6],3.86 ± 0.1 µM
same,"fold more potent than AHA, urease in intact cell",[6]; ratio of IC50 values vs AHA,44 fold
same,"viability at 72 h, 25 µg/mL",[7],> 93%
NC(=S)NC(=O)Cc1ccccc1[N+](=O)[O-] [b20],IC50,[1],183 ± 12 µM
same,melting point,,177.6 to 178.4 °C
NC(=S)NC(=O)Cc1ccc(Cl)cc1Cl [b21],IC50,[1],67.7 ± 4.3 µM
same,melting point,,166.6 to 167.2 °C
NC(=S)NC(=O)Cc1ccc([N+](=O)[O-])cc1 [b22],IC50,[1],155 ± 16 µM
same,melting point,,199.1 to 200.9 °C
NC(=S)NC(=O)Cc1ccc2ccccc2c1 [b24],melting point,,202.6 to 204.4 °C
NC(=S)NC(=O)C(c1ccccc1)c1ccccc1 [b25],IC50,[1],318 ± 24 µM
same,melting point,,169.5 to 172.7 °C
NC(=S)NC(=O)Cc1ccc(-c2ccccc2)cc1 [b26],IC50,[1],279 ± 16 µM
same,melting point,,187.3 to 189.6 °C
NC(=S)NC(=O)Cc1cccc2ccccc12 [b27],melting point,,195.5 to 197.9 °C
NC(=S)NC(=O)Cc1ccc2c(c1)OCO2 [b28],IC50,[1],98 ± 5 µM
same,melting point,,153.5 to 155 °C
NC(=S)NC(=O)Cc1ccc(O)c(O)c1 [b29],Kd,[2],0.783 ± 0.0213 µM
same,kon,[2],19800 M⁻¹ s⁻¹
same,koff,"[2]; pH 7.4, SPR",0.0155 s⁻¹
same,IC50,[1],18.4 ± 1.6 µM
same,Ki,[5],8.21 µM
same,Type of inhibition,[5],Reversible
same,Ki',[5],21.5 µM
same,melting point,,153.5 to 155 °C
same,IC50,[6],143 ± 6 µM
